Legend:
[1] = system: Dermacentor variabilis (American dog tick); experiment: Assay 4: adult American dog tick infestations on dogs, descending doses; format: in vivo, Dermacentor variabilis on beagle dogs
Description: (§1) The total number of live parasites present on each dog is determined for each interval, and this number is transformed using the natural logarithm transformation plus one (Ln count+1); addition of one to each count served to adjust for counts that are zero. Geometric mean (GM) group tick and flea counts are obtained via back-transformation of group mean transformed counts and subtracting one. The negative control group is used for comparison to treated groups for the calculation of percent efficacy (% reduction in live parasite counts). GM percent efficacy of treatments is calculated using the following formula: […]
(§2) The therapeutic (knockdown) and residual efficacy of the Example 1 compound, administered via topical spot-on at descending point doses of 30, 20 and 10 mg/kg, is evaluated against adult tick (Dermacentor variabilis (American dog tick) and Rhipicephalus sanguineus (Brown dog tick)) infestations on dogs. Twenty-four (24) beagle dogs are allocated to either an untreated, negative control group or one of three treated groups (n=6 dogs per group). Dogs are infested with approximately 50 unfed, adult R. sanguineus ticks on Days −1, 5, 12, 19 and 28; dogs are concurrently infested with D. variabilis ticks on Day 12 and Day 28. On Day 0, dogs are treated with the Example 1 compound (50 mg/ml of technical active dissolved in a vehicle solution of propylene carbonate, benzyl alcohol, and isopropyl myristate), applied via topical spot-on in a volume so as to achieve point doses of 30, 20 and 10 mg/kg. Tick counts and classification are conducted on Days 3, 7, 14, 21 and 30. GM percent efficacy of treatments against both tick species is calculated using the formula in Assay 3.

[2] = system: adult brown dog tick (Rhipicephalus sanguineus); experiment: Assay 3: adult brown dog tick infestations on dogs; format: in vivo, Rhipicephalus sanguineus on beagle dogs; settings: for % Efficacy (GM) / Geometric Mean Group Live Parasite Counts: topical spot-on 30 mg/kg
Description: (§3) The therapeutic (knockdown) and residual efficacy of the Example 1 compound, administered topically at a point dose of 30 mg/kg bodyweight, is evaluated against adult brown dog tick (Rhipicephalus sanguineus) and cat flea (Ctenocephalides felis) infestations on dogs. Based on pre-treatment tick retention rates, eight (8) beagle dogs are allocated to one of two treatment groups (n=4 per group): Untreated control group, and Example 1 compound-treated group. Dogs are infested with approximately 50 unfed, adult ticks one day prior to treatment (approximately 50% male and 50% female ticks). On Day 0, dogs are treated with Example 1 compound (50 mg/ml, dissolved in a vehicle solution of propylene carbonate, benzyl alcohol, and isopropyl myristate), applied via topical spot-on to achieve a point dose of 30 mg/kg. On Day 3 (approximately 72 hours after treatment), ticks are counted and removed from all dogs. To evaluate residual activity, dogs are re-infested with ticks on an approximate weekly basis for at least two weeks and up to 4 weeks, with tick counts (and removal) conducted 48 hours after each infestation. Dogs are infested with approximately 100 unfed, adult fleas at weeks 2 and 3 for both groups, concurrently with tick infestation.
as §1

[3] = system: adult brown tick (Rhipicephalus sanguineus); experiment: Assay 5: adult brown tick infestations on dogs; format: in vivo, Rhipicephalus sanguineus on beagle dogs; settings: 10 mg/kg topical spot-on
Description: as §1
The therapeutic (knockdown) and residual efficacy of the Example 1-4 compounds, when administered via topical spot-on at 10 mg/kg, is evaluated against adult brown tick (Rhipicephalus sanguine us) infestations on dogs. Twenty (20) beagle dogs are allocated to either an untreated, negative control group or one of four treated groups (n=4 dogs per group). Dogs are infested with approximately 50 unfed, adult R. sanguineus ticks on Days −1, 5, 12, 19 and 28. On Day 0, dogs are treated with Example 1-4 compound formulations (each, 50 mg/ml of technical active dissolved in a vehicle solution of propylene carbonate, benzyl alcohol, and isopropyl myristate), applied via topical spot-on in a volume so as to achieve a point dose of 10 mg/kg. Tick counts and classification are conducted on Days 2, 7, 14, 21 and 30. GM percent efficacy of treatments against ticks is calculated using the formula in Assay 3.

[4] = Assay 4: tolerability in dogs; format: in vivo, beagle dogs; settings: topical spot-on 30, 20 and 10 mg/kg
[5] = Assay 3: tolerability in dogs; format: in vivo, beagle dogs; settings: topical spot-on 30 mg/kg
[6] = system: Rhipicephalus sanguineus (Brown dog tick); experiment: Assay 4: adult brown dog tick infestations on dogs, descending doses; format: in vivo, Rhipicephalus sanguineus on beagle dogs
Description: as §1, §2

[7] = system: cat flea (Ctenocephalides felis); experiment: Assay 3: cat flea infestations on dogs; format: in vivo, Ctenocephalides felis on beagle dogs; settings: for % Efficacy (GM) / Geometric Mean Group Live Parasite Counts: topical spot-on 30 mg/kg
Description: as §3, §1

[8] = 10 mg/kg topical spot-on, Day 14, Dv
[9] = 10 mg/kg topical spot-on, Day 30, Dv
[10] = 20 mg/kg topical spot-on, Day 14, Dv
[11] = 20 mg/kg topical spot-on, Day 30, Dv
[12] = 30 mg/kg topical spot-on, Day 14, Dv
[13] = 30 mg/kg topical spot-on, Day 30, Dv
[14] = topical 30 mg/kg, through week 4
[15] = 10 mg/kg topical spot-on, Day 3, Rs
[16] = 10 mg/kg topical spot-on, Day 7, Rs
[17] = 10 mg/kg topical spot-on, Day 14, Rs
[18] = 10 mg/kg topical spot-on, Day 21, Rs
[19] = 10 mg/kg topical spot-on, Day 30, Rs
[20] = 20 mg/kg topical spot-on, Day 3, Rs
[21] = 20 mg/kg topical spot-on, Day 7, Rs
[22] = 20 mg/kg topical spot-on, Day 14, Rs
[23] = 20 mg/kg topical spot-on, Day 21, Rs
[24] = 20 mg/kg topical spot-on, Day 30, Rs
[25] = 30 mg/kg topical spot-on, Day 3, Rs
[26] = 30 mg/kg topical spot-on, Day 7, Rs
[27] = 30 mg/kg topical spot-on, Day 14, Rs
[28] = 30 mg/kg topical spot-on, Day 21, Rs
[29] = 30 mg/kg topical spot-on, Day 30, Rs

## CC[C@H]1CCC[C@H](NC(=O)c2ccco2)[C@@H](C)C(=O)C2=C[C@@H]3[C@@H](C=C[C@@H]4C[C@@H](O[C@@H]5O[C@@H](C)[C@H](OC)C(OC)[C@H]5OC)C[C@@H]34)[C@@H]2CC(=O)O1 (stereo partly drawn) [Example 1, N-((2R,3aS,5aR,5bS,9S,13S,14R,16aS,16bR)-9-ethyl-14-methyl-7,15-dioxo-2-(((2R,3R,5S,6S)-3,4,5-trimethoxy-6-methyltetrahydro-2H-pyran-2-yl)oxy)-2,3,3a,5a,5 b,6,7,9,10,11,12,13,14,15,16a,16b-hexadecahydro-1H-as-indaceno[3,2-d][1]oxacyclododecin-13-yl)furan-2-carboxamide]
[1]; [8]
  % Efficacy (GM): (99.49) %
  Geometric Mean Group Live Tick Counts: 0.12
[1]; [9]
  % Efficacy (GM): (95.30) %
  Geometric Mean Group Live Tick Counts: 1.60
[1]; [10]
  % Efficacy (GM): (97.87) %
  Geometric Mean Group Live Tick Counts: 0.51
[1]; [11]
  % Efficacy (GM): (97.34) %
  Geometric Mean Group Live Tick Counts: 0.91
[1]; [12]
  % Efficacy (GM): (98.06) %
  Geometric Mean Group Live Tick Counts: 0.47
[1]; [13]
  % Efficacy (GM): (97.95) %
  Geometric Mean Group Live Tick Counts: 0.70
[1]; all doses, both Day 14 and Day 30 intervals
  Residual efficacy against D. variabilis ticks: > 95%
[2]; [14]
  residual efficacy against ticks: > 90%
[2]; Day 3, Tick
  % Efficacy (GM): (87.42) %
  Geometric Mean Group Live Parasite Counts: 3.95
[2]; Week 1, Tick
  % Efficacy (GM): (99.44) %
  Geometric Mean Group Live Parasite Counts: 0.19
[2]; Week 2, Tick
  % Efficacy (GM): (100) %
  Geometric Mean Group Live Parasite Counts: 0.00
[2]; Week 3, Tick
  % Efficacy (GM): (100) %
  Geometric Mean Group Live Parasite Counts: 0.00
[2]; Week 4, Tick
  % Efficacy (GM): (100) %
  Geometric Mean Group Live Parasite Counts: 0.00
[3]; Day 2, R. sanguineus
  GM percent efficacy: (68.16)
  Geometric Mean Group Live Tick Counts: 10.03
[3]; Day 7, R. sanguineus
  GM percent efficacy: (100)
  Geometric Mean Group Live Tick Counts: 0.00
[3]; Day 14, R. sanguineus
  GM percent efficacy: (97.41)
  Geometric Mean Group Live Tick Counts: 0.57
[3]; Day 21, R. sanguineus
  GM percent efficacy: (95.27)
  Geometric Mean Group Live Tick Counts: 1.59
[3]; Day 30, R. sanguineus
  GM percent efficacy: (67.97)
  Geometric Mean Group Live Tick Counts: 8.40
[4]
  tolerability of treatment: well tolerated
[5]
  tolerability of treatment: well tolerated
[6]; [15]
  % Efficacy (GM): (73.39) %
  Geometric Mean Group Live Tick Counts: 4.92
[6]; [16]
  % Efficacy (GM): (100) %
  Geometric Mean Group Live Tick Counts: 0.00
[6]; [17]
  % Efficacy (GM): (97.59) %
  Geometric Mean Group Live Tick Counts: 0.70
[6]; [18]
  % Efficacy (GM): (96.14) %
  Geometric Mean Group Live Tick Counts: 0.70
[6]; [19]
  % Efficacy (GM): (90.64) %
  Geometric Mean Group Live Tick Counts: 1.18
[6]; [20]
  % Efficacy (GM): (84.80) %
  Geometric Mean Group Live Tick Counts: 2.81
[6]; [21]
  % Efficacy (GM): (100) %
  Geometric Mean Group Live Tick Counts: 0.00
[6]; [22]
  % Efficacy (GM): (99.58) %
  Geometric Mean Group Live Tick Counts: 0.12
[6]; [23]
  % Efficacy (GM): (99.32) %
  Geometric Mean Group Live Tick Counts: 0.12
[6]; [24]
  % Efficacy (GM): (94.12) %
  Geometric Mean Group Live Tick Counts: 0.74
[6]; [25]
  % Efficacy (GM): (79.13) %
  Geometric Mean Group Live Tick Counts: 3.86
[6]; [26]
  % Efficacy (GM): (98.92) %
  Geometric Mean Group Live Tick Counts: 0.12
[6]; [27]
  % Efficacy (GM): (99.10) %
  Geometric Mean Group Live Tick Counts: 0.26
[6]; [28]
  % Efficacy (GM): (97.55) %
  Geometric Mean Group Live Tick Counts: 0.44
[6]; [29]
  % Efficacy (GM): (95.94) %
  Geometric Mean Group Live Tick Counts: 0.51
[6]; Day 3, treatments 30, 20 and 10 mg/kg
  Therapeutic (knockdown) efficacy: 73-85%
[6]; through Day 21, all treatments (30, 20, 10 mg/kg)
  Residual efficacy against R. sanguineus: > 95%
[6]; through Day 30, 30 mg/kg dose
  Residual efficacy against R. sanguineus: > 95%
[7]; [14]
  residual efficacy against fleas: > 90%
[7]; Week 2, Flea
  % Efficacy (GM): (91.73) %
  Geometric Mean Group Live Parasite Counts: 7.15
[7]; Week 3, Flea
  % Efficacy (GM): (91.64) %
  Geometric Mean Group Live Parasite Counts: 7.21

Source: patent US20160115189A1, “PARASITICIDAL COMPOUNDS, METHODS, AND FORMULATIONS” (ELI LILLY AND COMPANY, priority 2013, published 2016)
